± gives the expanded uncertainty stated by the source.
Experiment: excess molar enthalpy (molar enthalpy of mixing); xn = mol fraction of the nth substance listed
Conditions: Liquid, Flow calorimetry

C1CCCCC1 [cyclohexane] + c1ccccc1
excess molar enthalpy [kcal/mol]
Conditions	298.2 K	348.2 K	423.2 K
100 kPa, x2 = 0.1191	0.0766 ± 0.00335	–	–
100 kPa, x2 = 0.2332	0.132 ± 0.00359	–	–
100 kPa, x2 = 0.2885	0.152 ± 0.00335	–	–
100 kPa, x2 = 0.3426	0.167 ± 0.00311	–	–
100 kPa, x2 = 0.3957	0.179 ± 0.00311	–	–
100 kPa, x2 = 0.4478	0.186 ± 0.00311	–	–
100 kPa, x2 = 0.4988	0.189 ± 0.00311	–	–
100 kPa, x2 = 0.5488	0.188 ± 0.00311	–	–
100 kPa, x2 = 0.5978	0.184 ± 0.00311	–	–
100 kPa, x2 = 0.6459	0.176 ± 0.00311	–	–
100 kPa, x2 = 0.6931	0.165 ± 0.00311	–	–
100 kPa, x2 = 0.7394	0.15 ± 0.00335	–	–
100 kPa, x2 = 0.7849	0.133 ± 0.00335	–	–
100 kPa, x2 = 0.8295	0.112 ± 0.00359	–	–
100 kPa, x2 = 0.9163	0.063 ± 0.00359	–	–
5000 kPa, x2 = 0.1189	0.076 ± 0.00359	0.0637 ± 0.00311	0.0511 ± 0.00311
5000 kPa, x2 = 0.1765	0.106 ± 0.00359	–	0.072 ± 0.00311
5000 kPa, x2 = 0.233	0.132 ± 0.00335	0.11 ± 0.00311	0.0886 ± 0.00287
5000 kPa, x2 = 0.2882	0.152 ± 0.00335	–	–
5000 kPa, x2 = 0.3424	0.167 ± 0.00311	0.141 ± 0.00311	0.113 ± 0.00287
5000 kPa, x2 = 0.3955	0.178 ± 0.00311	–	–
5000 kPa, x2 = 0.4475	0.184 ± 0.00311	0.156 ± 0.00311	0.126 ± 0.00287
5000 kPa, x2 = 0.4985	0.188 ± 0.00311	–	–
5000 kPa, x2 = 0.5485	0.187 ± 0.00311	0.159 ± 0.00311	0.128 ± 0.00287
5000 kPa, x2 = 0.5976	0.182 ± 0.00311	–	–
5000 kPa, x2 = 0.6457	0.174 ± 0.00311	0.148 ± 0.00311	0.12 ± 0.00287
5000 kPa, x2 = 0.6929	0.166 ± 0.00311	–	–
5000 kPa, x2 = 0.7392	0.151 ± 0.00335	0.126 ± 0.00311	0.103 ± 0.00311
5000 kPa, x2 = 0.7847	0.133 ± 0.00335	–	–
5000 kPa, x2 = 0.8293	0.113 ± 0.00359	0.0938 ± 0.00335	0.0766 ± 0.00311
5000 kPa, x2 = 0.8732	0.0885 ± 0.00382	–	0.0603 ± 0.00311
5000 kPa, x2 = 0.9162	0.0614 ± 0.00382	0.0514 ± 0.00335	0.0425 ± 0.00335
5000 kPa, x2 = 0.9585	–	0.0264 ± 0.00359	0.0221 ± 0.00335
15000 kPa, x2 = 0.1188	0.0714 ± 0.00335	0.0601 ± 0.00311	0.0502 ± 0.00311
15000 kPa, x2 = 0.1763	–	–	0.0712 ± 0.00311
15000 kPa, x2 = 0.2327	0.129 ± 0.00359	0.109 ± 0.00311	0.0873 ± 0.00287
15000 kPa, x2 = 0.2879	0.15 ± 0.00335	–	–
15000 kPa, x2 = 0.3421	0.166 ± 0.00335	0.14 ± 0.00311	0.111 ± 0.00287
15000 kPa, x2 = 0.3951	0.178 ± 0.00311	–	–
15000 kPa, x2 = 0.4471	0.185 ± 0.00311	0.156 ± 0.00311	0.124 ± 0.00287
15000 kPa, x2 = 0.4981	0.188 ± 0.00311	–	–
15000 kPa, x2 = 0.5482	0.188 ± 0.00311	0.158 ± 0.00311	0.125 ± 0.00287
15000 kPa, x2 = 0.5972	0.184 ± 0.00311	–	–
15000 kPa, x2 = 0.6454	0.175 ± 0.00311	0.148 ± 0.00311	0.117 ± 0.00287
15000 kPa, x2 = 0.6926	0.164 ± 0.00335	–	–
15000 kPa, x2 = 0.7389	0.149 ± 0.00335	0.127 ± 0.00311	0.1 ± 0.00311
15000 kPa, x2 = 0.7845	0.131 ± 0.00335	–	–
15000 kPa, x2 = 0.8291	0.11 ± 0.00359	0.0941 ± 0.00335	0.0743 ± 0.00311
15000 kPa, x2 = 0.873	–	–	0.0577 ± 0.00311
15000 kPa, x2 = 0.9161	0.0587 ± 0.00359	0.0511 ± 0.00359	0.0403 ± 0.00335
15000 kPa, x2 = 0.9584	–	0.0259 ± 0.00382	0.0203 ± 0.00335
25000 kPa, x2 = 0.1187	0.072 ± 0.00335	0.0642 ± 0.00335	0.0506 ± 0.00311
25000 kPa, x2 = 0.1762	–	0.0901 ± 0.00335	0.0707 ± 0.00311
25000 kPa, x2 = 0.2325	0.129 ± 0.00335	0.112 ± 0.00311	0.0873 ± 0.00287
25000 kPa, x2 = 0.3418	0.167 ± 0.00311	0.143 ± 0.00311	0.112 ± 0.00287
25000 kPa, x2 = 0.4469	0.185 ± 0.00311	0.158 ± 0.00311	0.124 ± 0.00287
25000 kPa, x2 = 0.5479	0.187 ± 0.00311	0.16 ± 0.00311	0.125 ± 0.00287
25000 kPa, x2 = 0.6451	0.175 ± 0.00311	0.149 ± 0.00311	0.117 ± 0.00287
25000 kPa, x2 = 0.7388	0.149 ± 0.00311	0.127 ± 0.00311	0.0996 ± 0.00311
25000 kPa, x2 = 0.7843	0.132 ± 0.00335	–	–
25000 kPa, x2 = 0.829	0.111 ± 0.00359	0.0933 ± 0.00311	–
25000 kPa, x2 = 0.8729	–	0.0728 ± 0.00335	–
25000 kPa, x2 = 0.916	0.0593 ± 0.00359	0.0502 ± 0.00359	–
25000 kPa, x2 = 0.9584	–	0.0242 ± 0.00382	–
